Patent US20040014694A1, “Use of docetaxel/doxorubicin/cyclophosphamide in adjuvant therapy” (priority 2002, published 2004)

What was measured:
advanced breast cancer = advanced breast cancer after anthracycline failure; cited from earlier work
[1] = In-house proprietary studies of docetaxel alone, overall response rate; type: in vivo; settings: first line therapy
Description: Docetaxel alone, in several in-house proprietary studies, gave overall response rates of 40 to 43% (in second line therapy at a dose of 100 mg/m^2), 48% (in first line therapy at a dose of 75 mg/m^2) and 61% (in first line therapy at a dose of 100 mg/m^2).

[2] = tested on: metastatic breast cancer (MBC); settings: MBC progressing despite previous anthracycline containing chemotherapy; cited from earlier work

## CC(=O)O[C@@]12CO[C@@H]1C[C@H](O)[C@@]1(C)C(=O)[C@H](O)C3=C(C)[C@@H](OC(=O)[C@H](O)[C@@H](NC(=O)OC(C)(C)C)c4ccccc4)C[C@@](O)([C@@H](OC(=O)c4ccccc4)[C@H]21)C3(C)C [Docetaxel, docetaxel]
Advanced breast cancer
  response rate and TTP compared with MF: superior to sequential methotrexate and 5-fluoruracil
[1]; dose 75 mg/m^2
  overall response rate: 48%
[1]; dose 100 mg/m^2
  overall response rate: 61%
[2]
  response, median time to progression (TTP), and survival compared with MV: significantly superior to MV
